Experimental data: patent publication US12616674B2, “Anti-fibrotic NEU3 inhibitor compounds and methods of use” (The Texas A&M University System, priority 2019, dated 2026)

What was measured:
[1] = test system: NEU3-induced IL-6 production by human PBMC; test: NEU3-induced extracellular IL-6 accumulation by human PBMC (IL-6 concentration assay); type: cell-based; conditions: NEU3, serum-free medium, 48 hours
Protocol: Human peripheral blood was collected from healthy volunteers who gave written consent and with specific approval from the Texas A&M University human subjects review board. Peripheral blood mononuclear cells (PBMC) were isolated from the blood using Ficoll-Paque density gradient centrifugation (95021-205, GE Healthcare, Cincinnati, OH) following the manufacture's protocol. PBMC were cultured at […] in 96-well flat bottom tissue culture plates (type 62406-081; […] Louis, MO)) in a final volume of 200 μl per well. […] The sialidases were diluted in 100 μl of the same medium the cells were in, and added to 100 μl of cells at 1×10^5 cells/ml to make the total volume in a well 200 μl with 1×10^4 cells/well. The cells were then incubated at 37° C. in a humidified incubator with 5% CO2. The culture supernatants were collected after two or five days and assayed using an IL-6 ELISA kit (430501, Biolegend, San Diego, CA) following the manufacturer's protocol, reading absorbance with a SynergyMX plate reader (BioTek, Winooski, VT). Statistics were analyzed using Prism software (Graphpad, La Jolla, CA). At least three different donors were used for each assay. […] IL-6 in the culture supernatant was then assayed as described above. At least three different donors were used for each assay.

[2] = test system: bleomycin-induced pulmonary fibrosis, C57BL/6 mice; test: Bleomycin-induced pulmonary fibrosis in mice; type: in vivo, mouse; conditions: for fibrosis-associated inflammation (BAL cell counts, CD11b, CD11c, CD45, Ly6G, Ly6C): daily i.p. from day 10, 1 mg/kg (2-acetyl pyridine, methyl picolinate) or 0.1 mg/kg (AMPCA), day 21, FIGS. 8A-F; for bleomycin-induced decrease in weights of mice / bleomycin-induced collagen deposition in the lungs (Sirius red staining): daily i.p. from day 10, 1 mg/kg (2AP, MP) or 0.1 mg/kg (AMPCA); for bleomycin-induced decrease in weights of mice: 21 days, FIGS. 11A-D; for bleomycin-induced collagen deposition in the lungs (Sirius red staining): day 21, FIGS. 9-10
Protocol: To determine if selected compounds affect pulmonary fibrosis in mice, 8-10 week old 26-30 g male C57BL/6 mice (Jackson, Bar Harbor, ME) were given an oropharyngeal aspiration of 3 units/kg bleomycin (2246-10, 50, BioVision Incorporated, Milpitas, CA) in 50 μl of 0.9% saline to induce symptoms of pulmonary fibrosis or oropharyngeal saline as a control following Current protocols in mouse biology 2, 167-175, (2012). Starting 10 days after bleomycin had been administered, some of the bleomycin-treated mice were given daily intraperitoneal injections of 100 μl of PBS or 1 mg/kg 2-acetyl pyridine (sc-254121, Santa Cruz Biotechnology, Inc. Dallas, TX) or 1 mg/kg methyl picolinate (sc-228575, Santa Cruz Biotechnology, Inc.) or 0.1 mg/kg of 2-piperidinecarboxylic acid, 4-amino-1-methyl (A00285-13785-026, Sundia, Shanghai, China) in 100 μl PBS. At day 21, mice were sacrificed by CO2 inhalation, and bronchoalveolar lavage (BAL) fluid and cytospins of BAL cells were obtained as previously described in Current protocols in mouse biology 2, 167-175 (2012); Proceedings of the National Academy of Sciences of the United States of America 112, 11929-11934 (2015); Proceedings of the National Academy of Sciences of the United States of America 111, 18291-18296 (2014); Proceedings of the National Academy of Sciences of the United States of America 112, 8385-8390 (2015); and Public Library of Science ONE 9, e93730 (2014) (all hereby incorporated by reference). The total cells from cytospins were quantified as described previously in Current protocols in mouse biology 2, 167-175, (2012); and Public Library of Science ONE 9, e93730 (2014). The lungs were removed and inflated with Surgipath frozen section compound (3801480, Leica, Buffalo Grove, IL) and preserved at −80° C. 6-10 μm cryosections of lungs were placed on glass slides (48311-703, VWR). The experiment was performed in accordance with the recommendations in the Guide for the Care and Use of Laboratory Animals of the National Institutes of Health. The Texas A&M University Animal Use and Care Committee approved the protocol.
Cryosections were stained for collagen with 0.1% Sirius red (09400, Polysciences, Warrington, PA), in saturated picric acid (26853-07, Electron Microscopy Sciences, Hatfield, PA) for 15 minutes at room temperature. The sections were washed in 0.5% acetic acid in water (v/v) for 10 minutes with two washes at room temperature. After dehydrating the sections in ethanol, the sections were mounted in Permount mounting medium (17986-01, Electron Microscopy Sciences). The sections were imaged on a Nikon Microphot-FX (Nikon, Tokyo, Japan), and staining was quantified with ImageJ.
Immunohistochemistry on BAL cytospins was performed as described previously in Public Library of Science ONE 9, e93730 (2014); Proceedings of the National Academy of Sciences of the United States of America 111, 18291-18296 (2014); and Proceedings of the National Academy of Sciences of the United States of America 112, 8385-8390 (2015) using anti-CD11b (101202, clone M1/70 BioLegend, San Diego, CA) to detect blood and inflammatory macrophages, anti-CD11c (M100-3, clone 223H7, MBL International, Woburn, MA) to detect alveolar macrophages and dendritic cells, anti-CD45 (103102, clone 30-F11, BioLegend) for total leukocytes, anti-Ly-6G (127602, clone 1A8, BioLegend) to detect neutrophils, and anti-Ly-6C (128001, clone HK1.4, BioLegend) to detect a variety of inflammatory immune system cells, and with isotype-matched irrelevant antibodies (BioLegend) as controls.

Row | SMILES | IC50 [1] [µM] | fibrosis-associated inflammation (BAL cell counts, CD11b, CD11c, CD45, Ly6G, Ly6C) [2] | bleomycin-induced decrease in weights of mice [2] | bleomycin-induced collagen deposition in the lungs (Sirius red staining) [2]
1 | CC(=O)c1ccccn1 [Compound 5, 2-acetylpyridine] | 32 | can reduce fibrosis-associated inflammation | attenuated | reduced
2 | COC(=O)c1ccccn1 [Compound 6, methyl picolinate] | > 100 | can reduce fibrosis-associated inflammation | attenuated | reduced
3 | CN1CCC(N)CC1C(=O)O (stereo not drawn) [Compound 26, 2-piperidinecarboxylic acid, 4-amino-1-methyl] | 1e-05 | can reduce fibrosis-associated inflammation | attenuated | reduced
